Patent publication US4468350A, “KA-6643-Series antibiotics, process for producing same and medical composition containing same” (Kowa Co., Ltd., priority 1980, dated 1984)
In brackets after ≈: the same amount, converted by molar mass. Read-outs that look alike come from different tables or passages of the source.

How the values were obtained:
β-lactamase = details: disclosed in Japanese Laid-open Patent Application Nos. 55-139380 and 56-43284; cited from earlier work
dehydropeptidase = test: Decomposition with dehydropeptidase (stability); assay type: in vitro ADME; details: dehydropeptidase extracted from pig kidney and purified; KA-6643-A given as 1
[1] = tested on: gram-positive and gram-negative bacteria; details: disclosed in Japanese Laid-open Patent Application Nos. 55-139380 and 56-43284; cited from earlier work
[2] = tested on: Klebsiella pneumoniae PCI-602; test: Antibacterial spectrum, minimum inhibitory concentration; assay type: cell-based; details: PCI602
[3] = tested on: Pseudomonas aeruginosa NCTC 10490; test: as above; assay type: cell-based; details: NCTC10490
[4] = tested on: Staphylococcus aureus 209P JC-1; test: as above; assay type: cell-based
[5] = tested on: Escherichia coli NIHJ JC-2; test: as above; assay type: cell-based; details: NIHJJC2
Solubility in solvents = assay type: physicochemical; details: sodium salt
Proteus vulgaris OX17 = test: Antibacterial spectrum, minimum inhibitory concentration; assay type: cell-based
[6] = tested on: Enterobacter cloacae IID 977; test: as above; assay type: cell-based; details: IID977
[7] = tested on: Escherichia coli ML-1410R EC-1; test: Antibacterial activity-improving action against β-lactam-resistant bacteria (Disc method); assay type: cell-based; details: ML1410REC1, 18 h
Description: (1) Antibacterial activity-improving action against β-lactam-resistantbacteria (Disc method):
(§1) In Penassay agar (Kyoei Pharm. Co., Ltd.) in which 200 mcg/ml of aminobenzyl penicillin (AB-PC) was inoculated germs of Escherichia coli ML-1410R EC-1 which β-lactamase-producing organisms, and 10 ml of the inoculated medium were poured on a Petri disch of 9 cm in diameter and solidified to give a test medium.
(§2) On this agar medium were placed pulp discs of 8 mm in diameter into which were respectively introduced […] of aqueous solutions of the substance KA-6643-D with a concentration of 10 mcg/ml followed by culturing at 37° C. for 18 hours and measuring the diameter of an inhibition zone around each disc. For purposes of control, the above experiment was repeated using the same type of medium in which no AB-PC was added.
The synergistic effect of the present substance and Ampicillin (aminobenzylpenicillin, AB-PC) on Escherichia coli which is resistant to Ampicillin was investigated by the disc method similarly to item (II) above with the results shown in Table 2.

[8] = tested on: Ampicillin-resistant Escherichia coli; test: Synergistic effect with Ampicillin (AB-PC) on Ampicillin-resistant Escherichia coli (disc method); assay type: cell-based; details: for Inhibitory zone: AB-PC 500 mcg/ml; for Diameter of inhibitory zone: AB-PC added
Description: as §1, §2
The synergistic effect of the present substance and Ampicillin (AB-PC) on the Ampicillin-resistant Escherichia coli was investigated by the disc method similarly to the case of item (II) above, except that AB-PC was used in an amount of 500 mcg/ml.
The synergistic effect of the present substance and Ampicillin (AB-PC) on the Ampicillin-resistant Escherichia coli was investigated by the disc method similarly to the case of item (II) above.

Proteus inconstants = test: Antibacterial spectrum, minimum inhibitory concentration; assay type: cell-based

SMILES	β-lactamase inhibiting activity (β-lactamase)	rate of decomposition with dehydropeptidase (dehydropeptidase)	antibacterial activity against both gram-positive and gram-negative bacteria [1]	MIC [2]	MIC [3]	MIC [4]	MIC [5]	MIC (Proteus vulgaris OX17)	MIC [6]	Solubility in water and methanol (Solubility in solvents)	also measured
CC(=O)NC=C[S+]([O-])C1=C(C(=O)O)N2C(=O)C(C(C)(C)O)C2C1 (stereo not shown) [KA-6643-A]	β-lactamase inhibiting activity	1	excellent antibacterial activity	–	–	–	–	–	–	–	–
CC(=O)NC=C[S+]([O-])C1=C(C(=O)O)N2C(=O)C(C(C)(C)OS(=O)(=O)O)C2C1 (stereo not shown) [KA-6643-B]	β-lactamase inhibiting activity	–	excellent antibacterial activity	–	–	–	–	–	–	–	–
CC(=O)NCCSC1=C(C(=O)O)N2C(=O)[C@@H](C(C)(C)OS(=O)(=O)O)[C@H]2C1 [KA-6643-D]	–	–	–	3.1 mg/L (≈ 7.59 µM)	25 mg/L (≈ 61.2 µM)	25 mg/L (≈ 61.2 µM)	3.1 mg/L (≈ 7.59 µM)	12.5 mg/L (≈ 30.6 µM)	6.25 mg/L (≈ 15.3 µM)	–	Solubility in organic solvents (Solubility in solvents; organic solvents such as acetone, chloroform, ethyl acetate and petroleum ether): substantially insoluble; Solubility in water (Solubility in solvents; water): Readily soluble; zone of inhibition at 10 µg/mL ([7]; read-out: Diameter of inhibitory zone, present compound 10 mcg/ml, AB-PC 200 mcg/ml in medium, 37° C.): 22 mm; zone of inhibition at 10 µg/mL ([7]; read-out: Diameter of inhibitory zone, present compound 10 mcg/ml, no AB-PC, 37° C.): 0 mm
CC(=O)NCCSC1=C(C(=O)O)N2C(=O)[C@@H](C(C)(C)O)[C@H]2C1 [KA-6643-G]	–	2.5×10^-3	–	> 25 mg/L	> 25 mg/L	6.25 mg/L (≈ 19 µM)	> 25 mg/L	> 25 mg/L	> 25 mg/L	Soluble	Inhibitory zone ([8]; present substance 250 mcg/ml): 20.5 mm; Inhibitory zone ([8]; present substance 500 mcg/ml): 22.5 mm; Inhibitory zone ([8]; present substance 1,000 mcg/ml): 24.5 mm; Solubility in acetone, ethyl acetate and chloroform (Solubility in solvents; acetone, ethyl acetate and chloroform): substantially insoluble
CC(=O)NCCSC1=C(C(=O)O)N2C(=O)C(=C(C)CO)C2C1 (stereo not shown) [KA-6643-X]	–	–	–	0.2 mg/L (≈ 0.613 µM)	3.1 mg/L (≈ 9.5 µM)	1.56 mg/L (≈ 4.78 µM)	0.05 mg/L (≈ 0.153 µM)	0.05 mg/L (≈ 0.153 µM)	0.78 mg/L (≈ 2.39 µM)	Soluble	zone of inhibition at 25 µg/mL ([8]; Escherichia coli, 18 h, present substance 25 mcg/ml, No AB-PC added, read-out: Diameter of inhibitory zone): 19 mm; zone of inhibition at 50 µg/mL ([8]; Escherichia coli, 18 h, present substance 50 mcg/ml, No AB-PC added, read-out: Diameter of inhibitory zone): 21 mm; Diameter of inhibitory zone ([8]; present substance 25 mcg/ml): 21.5 mm; Diameter of inhibitory zone ([8]; present substance 50 mcg/ml): 23.0 mm; Solubility in acetone, ethyl acetate, chloroform and ether (Solubility in solvents; acetone, ethyl acetate, chloroform and ether): substantially insoluble; MIC (Proteus inconstants): 3.1 mg/L (≈ 9.5 µM)
